Data on one compound can be found in patent publication US20260355189A1, “SMALL MOLECULE INHIBITORS OF NEUTROPHIL EXOCYTOSIS AND INFLAMMATION” (THE SCRIPPS RESEARCH INSTITUTE, priority 2022, published 2026).

For experiment [1], the system named is LPS-challenged mice. Kind of experiment: LPS-induced systemic inflammation (endotoxemia/sepsis), plasma cytokines. The class given is in vivo, mouse. Particulars: for IL-10 levels: FIG. 10B. The protocol: FIG. 10A-B. Treatment with compound NEIa-C6 inhibits pro-inflammatory cytokine production in a model of sepsis. We tested the ability of C6 to protect mice from LPS-induced systemic inflammation. In these experiments, mice (n=4 independent mice per group) receive NEIa-C6 (30 mg/Kg) or vehicle by a single i.p. injection and two hours later, the animals are challenged with a single i.p. injection of lipopolysaccharide (LPS, 8 mg/Kg) or PBS (vehicle for LPS). Four hours after LPS/PBS insult, blood is collected and cytokines are analyzed in plasma using multiplex technology.
To test whether Nexinhibs, and in particular NEIa-C6, have additional protective properties in inflammation models relevant to human disease, independent of inflammasome activation, we tested the ability of C6 to protect mice from LPS-induced systemic inflammation. In these experiments, mice received NEIa-C6 (30 mg/Kg) or vehicle by a single i.p. injection and two hours later, the animals are challenged with a single i.p. injection of lipopolysaccharide (LPS, 8 mg/Kg), an important outer membrane component of gram-negative bacteria. In this model, endotoxemia insult induces the production of pro-inflammatory cytokines. To test the possible anti-inflammatory effect of NEIa-C6, we comparatively analyzed cytokine levels in plasma of LPS-insulted and control mice using multiplex technology.

Experiment [2] deals with human neutrophils (Gelatinase granule cargo MMP9). In words: Flow cytometry of gelatinase granule exocytosis (MMP9) in human neutrophils. The format is cell-based. The note with it: 1 hour, GM-CSF + fMLP. From the text:
(§1) Human neutrophils were isolated from normal donor's blood by Ficoll density centrifugation, as described previously (23). Murine bone marrow-derived neutrophils were isolated using a Percoll gradient fractionation system as described (24). A three-layer Percoll gradient was used (52%, 64%, and 72%), and neutrophils were isolated from the 64-72% interface, washed, and used in the assays.
(§2) Method: The up-regulation of granule membrane-associated neutrophil markers at the plasma membrane was analyzed by flow cytometry. In these studies, flow cytometry analysis was performed by resuspension of 1×10^6 human neutrophils in phenol red-free RPMI 1640 medium, treated with a 10 μM solution of Inhibitors C1, C2, C4, C5, and C6 and Nexinhib 20 (C20) or DMSO control for 1 hour, and stimulated with physiological agonists GM-CSF (10 ng/ml) for 30 min followed by the addition of fMLP (1 μM) to induce degranulation or left untreated at 37 °C (non-stimulated, NS). The reactions were stopped by transferring the samples to ice and immediately spinning down the cells to initiate blocking and staining. To analyze the plasma membrane expression of plasma membrane markers, the cells were blocked in ice-cold PBS containing 1% BSA and stained with phycoerythrin (PE)-, FITC-, or Alexa647-conjugated anti-human CD63, CD66b, MMP9, and CD11b antibodies that detect extracellular epitopes of these markers. The cells were then washed and fixed in 1% paraformaldehyde in PBS. Samples were analyzed using a NovoCyte flow cytometer, and the data were processed using FlowJo software.

Experiment [3] concerns human neutrophils (azurophilic granule marker CD63). Kind of experiment: Flow cytometry of azurophilic granule mobilization (CD63) in human neutrophils. The class given is cell-based. The note with it: Homo sapiens, Neutrophil, 1 hour, GM-CSF + fMLP, N=15 donors, FIG. 4, read-out: Mean % inhibition of CD63 up-regulation.
Description: as §1, §2

Experiment [4] relates to human neutrophils (secretory vesicle marker CD11b). In words: Flow cytometry of secretory vesicle mobilization (CD11b) in human neutrophils. The format is cell-based. The note with it: 10 μM, 1 hour; GM-CSF + fMLP; relative to DMSO; N=15 donors; FIG. 7.
Description: as §1, §2
(A flow cytometer gives signals particle by particle.)

Experiment [5] relates to wild-type neutrophils. In words: Secretion by wild-type neutrophils. The format is cell-based.
Experiment [6] relates to neutrophils that carry the NLRP3 A350V mutation. In words: Secretion by bone-marrow-derived neutrophils from Nlrp3 A350V (CAPS) mice. The class given is cell-based, mouse. Particulars: 10 μM, 1 hour, LPS and fMLF. From the text: FIG. 8A-C. […] A, gelatinase (MMP9) granules; B, azurophilic granules (MPO, myeloperoxidase); C, CD63 (an endolysosomal marker). […] Subsequently, neutrophils were either stimulated with lipopolisacharide (LPS) and the chemotatctic peptide fMLF or left untreated. C20 (Nexinhib20 is used as control). Mean±SEM, n=3. In this and subsequent figures, p<0.05; **, p<0.01; ***, p<0.001; ****, p<0.0001, ANOVA.
These compounds are now tested using neutrophils from a mouse model of Cryopyrin-Associated Periodic Syndrome (CAPS), a systemic inflammatory disease in humans, caused by gain-of-function mutations of the NOD-like receptor family member, cryopirin, also known as NLRP3 (J Cin Immunol 39, 277-286, doi:10.1007/s10875-019-00638-z (2019)). Heterozygous NLRP3 mutations lead to hyper-responsive NLRP3 inflammasome function characterized by increased caspase-1 (Casp1) activation and […], and is observed in patients and in animal models with NLRP3-gain-of-function mutations. […] Subsequently, neutrophils were either stimulated with LPS and the chemotatctic peptide fMLF or left untreated.

For experiment [7], the system named is human neutrophils (specific granule marker CD66b). In words: Flow cytometry of specific granule exocytosis (CD66b) in human neutrophils. The class given is cell-based. The note with it: 1 hour, GM-CSF + fMLP.
Description: as §1, §2

[8] abbreviates: 30 mg/Kg i.p., LPS 8 mg/Kg, plasma, FIG. 10A.

Each structure is given as a SMILES string.

Take `CCN(CC)CCNC(=O)/C(=C/c1cccc([N+](=O)[O-])c1)n1cncn1` [154 (C6)]: the “Production of pro-inflammatory cytokines” value in experiment [1] (30 mg/Kg i.p. 2 h before LPS 8 mg/Kg, plasma 4 h after LPS, FIG. 10A) is reported as “inhibit the production of the indicated pro-inflammatory cytokines”. In experiment [1] (setting [8]), the GM-CSF production result is “significantly decreases”, the IL-1β production result is reported as “significantly decreases”, the IL-17 levels entry is given as “decreased” and the MIP-2 levels entry is on record as “decreased”. Moreover, the TL-3 levels entry in experiment [1] (setting [8]) is given as “decreases”. The IL-10 levels entry in experiment [1] (30 mg/Kg i.p., LPS 8 mg/Kg, plasma, listed as C6) was “increases the production of IL-10”. In addition, the IL-10 levels entry in experiment [1] (30 mg/Kg i.p., LPS 8 mg/Kg, plasma, listed as NEIa-C6) was “increased the levels of IL-10”. In addition, the “Inhibition in MMP9 experiment (words; printed as CD66b up-regulation)” value in experiment [2] (10 μM, relative to DMSO, FIG. 6) is reported as “marked inhibition of CD66b up-regulation”. Also, in experiment [2] (Homo sapiens, Neutrophil, N=12 donors, FIG. 6, read-out: % Inhibition of MMP9 up-regulation), the inhibition at 10 µM came to 54.4%. For the same compound, the inhibition at 10 µM in experiment [3] stood at 58.1%. Also, in experiment [4], the “Release of CD11b+ vesicles / CD11b upregulation” value was “unaffected”. For the same compound, the “Inhibitory effect on wild-type neutrophils” value in experiment [5] was “selective inhibitory effect on wild-type neutrophils”. In experiment [6] (FIG. 8), the “Mobilization of azurophilic granules (MPO)” value is listed as “inhibit the mobilization” and the “Mobilization of gelatinase granules (MMP9)” value was “inhibit the mobilization of gelatinase granules (MMP9)”. In addition, the “Neutrophil secretion (hyperactivation of secretion)” value in experiment [6] (Nlrp3 A350V and wild type, FIG. 8A-C) is on record as “inhibit the hyperactivation of secretion”. In addition, the “Mobilization of CD63” value in experiment [6] (murine neutrophils, FIG. 8) was “significantly inhibited the mobilization of CD63”. Further, the “Inhibition of CD66b up-regulation” value in experiment [7] (10 μM, relative to DMSO, FIG. 5) is “reduced the up-regulation of CD66b”. The inhibition at 10 µM in experiment [7] (Homo sapiens, Neutrophil, N=12 donors, FIG. 5, read-out: % inhibition of CD66b up-regulation) turned out to be 42.3%.

For orientation: inhibition means the share of the control response that was lost under treatment.
